Laboratory results from ChEMBL document CHEMBL1127776, “Stereospecific synthesis of a pentopyranosyl analogue of d4T monophosphate” (Bioorg Med Chem Lett, 1994).
Activity calls are given as the source filed them.

What was measured:
Type in all cases: functional, cell-based
Details in all cases: Homo sapiens
CCRF-CEM [1] = test: Compound was tested for toxicity to the CEM cell monolayers; No toxicity
CCRF-CEM [2] = test: Compound was tested for the inhibition of HIV-1 replication in CEM cell culture up to 100 ug/mL concentration; Not active
CCRF-CEM [3] = test: Compound was tested for the inhibition of HIV-2 replication in CEM cell culture up to 100 ug/mL concentration; Not active

Cc1cn(C2C=CC(OCP(=O)(O)O)CO2)c(=O)[nH]c1=O (stereo not drawn)
inactive: Toxicity (CCRF-CEM [1]) Not toxic | inhibition (CCRF-CEM [2]) | inhibition (CCRF-CEM [3])
